Test system: rat liver
Test: 13C MR spectra in rat liver after intravenous injection of hyperpolarised solution
Conditions: 1 ml of 42 mM solution, 9.4T MRI
Excerpt: The data was acquired in preclinical horizontal-bore 9.4T MRI system using a 10-mm diameter 13C surface coil and a series of 20-degree radiofrequency pulses applied every 2 s.

downstream metabolites detected in 13C MR spectra: downstream metabolites could be detected
SMILES: CC(O)[13C](=O)O (stereo not shown) [[1-13C]lactate, [1-13C]lactic acid]

Source: US20240366801A1, “HYPERPO[…] AND PRODUCT” (CAMBRIDGE ENTERPRISE LIMITED, priority 2021, published 2024)
